Laboratory results reported in US8404643B2, “Metastin derivatives and use thereof” (priority 2005, dated 2013).
Numbered stars: 1 amine (or outer) side, 2 acyl side, 3 side chain; on linkers, the order of the positions; unused ones are H or OH. Square brackets hold non-standard residues; d marks the D form. Peptide text beside a SMILES is read from it. * marks the point of attachment. pY = N[C@@H](Cc1ccc(OP(=O)(O)O)cc1)C(=O)O; Nip(3R) = O=C([C@@H]1CCCN([*:1])C1)[*:2]; Phe(4-Cl) = N[C@@H](Cc1ccc(Cl)cc1)C(=O)O; Phe(4-F) = N[C@@H](Cc1ccc(F)cc1)C(=O)O; Phe(2-F) = N[C@@H](Cc1ccccc1F)C(=O)O; Arg(Me) = CNC(=N)NCCC[C@H](N)C(=O)O; Hyp = O=C(O)[C@@H]1C[C@@H](O)CN1; Decanoyl = CCCCCCCCCC(=O)*; Orn = NCCC[C@H](N)C(=O)O; azaGly = NNC(=O)O

Molecular target: T1, hOT7T175 (Homo sapiens, UniProt Q969F8)
T1 construct: expressed in transfected cells
T1 sequence (Q969F8 whole entry L364H): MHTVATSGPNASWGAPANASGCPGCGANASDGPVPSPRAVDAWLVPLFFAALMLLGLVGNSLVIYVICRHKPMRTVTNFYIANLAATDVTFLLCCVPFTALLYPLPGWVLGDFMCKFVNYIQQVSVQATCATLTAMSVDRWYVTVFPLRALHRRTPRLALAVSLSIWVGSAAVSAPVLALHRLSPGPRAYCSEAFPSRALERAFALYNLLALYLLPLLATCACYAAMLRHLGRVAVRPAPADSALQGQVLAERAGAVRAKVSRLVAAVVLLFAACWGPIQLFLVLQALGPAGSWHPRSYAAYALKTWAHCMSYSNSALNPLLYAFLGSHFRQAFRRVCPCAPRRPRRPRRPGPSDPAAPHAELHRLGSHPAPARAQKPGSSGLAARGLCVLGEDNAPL
Assay: Assay for intracellular Ca ion level-increasing activity using FLIPR
Type: cell-based
Conditions: hOT7T175/CHO cells, relative to Metastin (1-54)
Description: In accordance with the method described in JPA 2000-312590, the intracellular Ca ion level-increasing activity was measured using FLIPR.
The stable expression cell line hOT7T175 was obtained by transfection of the expression plasmid pAK-rOT175 for animal cells into CHO/dhfr^− cells, using CellPhect Transfection Kit (Amersham Pharmacia Biotech, Inc.). First, 240 μL of Buffer A (attached to CellPhect Transfection Kit) was added to 9.6 μg of plasmid DNA dissolved in 240 μL of distilled water followed by stirring. After the mixture was settled for 10 minutes, 480 μL of Buffer B (attached to CellPhect Transfection Kit) was added to the mixture, which was vigorously stirred to form liposomes containing the DNA. Then, 4×10^5 CHO/dhfr^− cells (obtained from ATCC) were inoculated on a 60 mm Petri dish. After culturing the cells in Ham's F-12 medium (Nissui Seiyaku Co., Ltd.) supplemented with 10% fetal bovine serum (BIO WHITTAKER, Inc.) at 37° C. for 2 days in 5% carbon dioxide gas, […] of the liposomes were dropwise added to the cells on the Petri dish. After culturing the cells at 37° C. for 6 hours in 5% carbon dioxide gas, the cells were washed twice with serum-free Ham's F-12 medium and 3 mL of 15% glycerol was added to the cells on the Petri dish followed by treatment for 2 minutes. The cells were again washed twice with serum-free Ham's F-12 medium followed by incubation in Ham's F-12 medium supplemented with 10% fetal bovine serum at 37° C. for 15 hours in 5% carbon dioxide gas. The cells were dispersed by trypsin treatment to recover from the Petri dish. The recovered cells were inoculated on a 6-well plate in 1.25×10^4 cells/well and incubation was initiated at 37° C. in Dulbecco's modified Eagle medium (DMEM) medium (Nissui Seiyaku Co., Ltd.) containing 10% dialyzed fetal bovine serum (JRH BIOSCIENCES, Inc.) in 5% carbon dioxide gas. The plasmid-transfected CHO transformants grew in the medium but the non-transfected cells gradually died, accordingly the medium was exchanged on Days 1 and 2 after the initiation of incubation to remove the cells died. Approximately 20 colonies of the CHO transformants that kept growing on Days 8 to 10 after the incubation were isolated. From the cells in these colonies, cells showing high reactivity with the ligand peptide metastin (hereinafter merely referred to as hOT7T175/CHO) were selected to provide for the following experiment.
The intracellular Ca ion level-increasing activity of the synthetic peptide in hOT7T175/CHO was determined using FLIPR (Molecular Devices, Inc.).
hOT7T175/CHO was subcultured in DMEM supplemented with 10% dialyzed fetal bovine serum (hereinafter abbreviated as dFBS) (hereinafter referred to as 10% dFBS/DMEM) and provided for the experiment. The hOT7T175/CHO was suspended in 10% dFBS-DMEM in 15×10^4 cells/ml. The suspension was inoculated on a 96-well plate for FLIPR (Black Plate Clear Bottom, Coster, Inc.) at 200 μl/well (3.0×10^4 cells/200 μL/well), followed by incubation at 37° C. overnight in a 5% CO2 incubator (hereinafter referred to as the cell plate). Then, 21 ml of HANKS/HBSS (9.8 g of HANKS, 0.35 g of sodium hydrogencarbonate, 20 ml of 1M HEPES; after adjusting the pH to 7.4 with 1N sodium hydroxide, the mixture was sterilized by filtration), 210 μl of 250 mM Probenecid and 210 μl of fetal bovine serum (FBS) (HANKS/HBSS-Probenecid-FBS) were mixed.
Furthermore, 2 vials of Fluo3-AM (50 μg/vial) were dissolved in 21 μL of dimethylsulfoxide and 21 μL of 20% Pluronic acid. The resulting solution was added to and mixed with 10 ml of the HANKS/HBSS-Probenecid-FBS described above. After the culture medium was removed, the mixture was dispensed onto the cell plate in 100 μl each/well, followed by incubation at 37° C. for an hour in a 5% CO2 incubator (pigment loading). The peptide was dissolved in dimethylsulfoxide in 1×10^−3 M. The peptide solution was diluted with HANKS/HBSS containing 2.5 mM Probenecid, 0.2% BSA and 0.1% CHAPS. […]

Molecule | Specific Activity: intracellular Ca ion level-increasing activity [specific activity to Metastin (1-54)]
CNC(=N)NCCC[C@H](NC(=O)[C@H](CC(C)C)NC(=O)NNC(=O)[C@H](Cc1ccc(Cl)cc1)NC(=O)[C@@H](NC(=O)[C@H](CC(N)=O)NC(=O)[C@H](Cc1c[nH]c2ccccc12)NC(=O)[C@@H](Cc1ccc(O)cc1)NC(C)=O)[C@@H](C)O)C(=O)N[C@@H](Cc1c[nH]c2ccccc12)C(N)=O [Compound No. 768, Ac-D-Tyr-Trp-Asn-Thr-Phe(4Cl)-AzaGly-Leu-Arg(Me)-Trp-NH2] (Ac-[dY]WNT[Phe(4-Cl)][azaGly]L[Arg(Me)]W-NH2) | 0.6
CNC(=N)NCCC[C@H](NC(=O)[C@H](CC(C)C)NC(=O)NNC(=O)[C@H](Cc1ccccc1)NC(=O)[C@@H](NC(=O)[C@H](CC(N)=O)NC(=O)[C@@H]1C[C@@H](O)CN1C(=O)[C@H](Cc1ccc(O)cc1)NC(C)=O)[C@@H](C)O)C(=O)N[C@@H](Cc1c[nH]c2ccccc12)C(N)=O [Compound No. 899, Ac-Tyr-Hyp-Asn-Thr-Phe-AzaGly-Leu-Arg(Me)-Trp-NH2] (Ac-Y[Hyp]NTF[azaGly]L[Arg(Me)]W-NH2) | 1.1
CNC(=N)NCCC[C@H](NC(=O)[C@H](CC(C)C)NC(=O)NNC(=O)[C@H](Cc1ccccc1)NC(=O)c1ccc(CN(Cc2ccccn2)Cc2ccccn2)cc1)C(=O)N[C@@H](Cc1c[nH]c2ccccc12)C(N)=O [Compound No. 801, 4-[Bis-(2-Pyridylmethyl)aminomethyl]benzoyl-Phe-AzaGly-Leu-Arg(Me)-Trp-NH2] | 11.1
CNC(=N)NCCC[C@H](NC(=O)[C@H](CC(C)C)NC(=O)NNC(=O)[C@H](Cc1ccccc1)NC(=O)[C@@H](NC(=O)[C@H](CC(N)=O)NC(=O)[C@@H]1NCCN1C(=O)[C@@H](Cc1ccc(O)cc1)NC(C)=O)[C@@H](C)O)C(=O)N[C@@H](Cc1c[nH]c2ccccc12)C(N)=O [Compound No. 734, Ac-D-Tyr-Izc-Asn-Thr-Phe-AzaGly-Leu-Arg(Me)-Trp-NH2] | 2.3
Ac-D-Tyr-Tyr(PO3H2)-Asn-Thr-Phe-AzaGly-Leu-Arg(Me)-Trp-NH2 (Ac-[dY][pY]NTF[azaGly]L[Arg(Me)]W-NH2; SMILES CNC(=N)NCCC[C@H](NC(=O)[C@H](CC(C)C)NC(=O)NNC(=O)[C@H](Cc1ccccc1)NC(=O)[C@@H](NC(=O)[C@H](CC(N)=O)NC(=O)[C@H](Cc1ccc(OP(=O)(O)O)cc1)NC(=O)[C@@H](Cc1ccc(O)cc1)NC(C)=O)[C@@H](C)O)C(=O)N[C@@H](Cc1c[nH]c2ccccc12)C(N)=O) [Compound No. 775] | 1.3
CNC(=N)NCCC[C@H](NC(=O)[C@H](CC(C)C)NC(=O)NNC(=O)[C@H](Cc1ccccc1)NC(=O)CNC(=O)[C@H](CC(N)=O)NC(=O)[C@@H]1C[C@@H](O)CN1C(=O)[C@@H](Cc1ccc(O)cc1)NC(C)=O)C(=O)N[C@@H](Cc1c[nH]c2ccccc12)C(N)=O [Compound No. 813, Ac-D-Tyr-Hyp-Asn-Gly-Phe-AzaGly-Leu-Arg(Me)-Trp-NH2] (Ac-[dY][Hyp]NGF[azaGly]L[Arg(Me)]W-NH2) | 0.5
CNC(=N)NCCC[C@H](NC(=O)[C@H](CC(C)C)NC(=O)NNC(=O)[C@H](Cc1ccccc1)NC(=O)[C@@H](NC(=O)[C@H](CC(N)=O)NC(=O)[C@@H]1CCCN(C(=O)[C@@H](Cc2ccc(O)cc2)NC(C)=O)C1)[C@@H](C)O)C(=O)N[C@@H](Cc1c[nH]c2ccccc12)C(N)=O [Compound No. 722, Ac-D-Tyr-Pic(3)-Asn-Thr-Phe-AzaGly-Leu-Arg(Me)-Trp-NH2] (Ac-[dY][Nip(3R)]NTF[azaGly]L[Arg(Me)]W-NH2) | 2.2
CNC(=N)NCCC[C@H](NC(=O)[C@H](CC(C)C)NC(=O)NNC(=O)[C@H](Cc1ccc(F)cc1)NC(=O)[C@@H](NC(=O)[C@H](CC(N)=O)NC(=O)[C@H](CCC(=O)O)NC(=O)[C@@H](Cc1ccc(O)cc1)NC(C)=O)[C@@H](C)O)C(=O)N[C@@H](Cc1c[nH]c2ccccc12)C(N)=O [Compound No. 788, Ac-D-Tyr-Glu-Asn-Thr-Phe(4F)-AzaGly-Leu-Arg(Me)-Trp-NH2] (Ac-[dY]ENT[Phe(4-F)][azaGly]L[Arg(Me)]W-NH2) | 2.7
CNC(=N)NCCC[C@H](NC(=O)[C@H](CC(C)C)NC(=O)NNC(=O)[C@H](Cc1ccccc1)NC(=O)[C@@H](NC(=O)[C@H](CC(N)=O)NC(=O)[C@@H](CO)NC(=O)[C@@H](Cc1ccc(O)cc1)NC(C)=O)[C@@H](C)O)C(=O)N[C@@H](Cc1c[nH]c2ccccc12)C(N)=O [Compound No. 737, Ac-D-Tyr-D-Ser-Asn-Thr-Phe-AzaGly-Leu-Arg(Me)-Trp-NH2] (Ac-[dY][dS]NTF[azaGly]L[Arg(Me)]W-NH2) | 3.0
CCCCCCCCCC(=O)N[C@@H](CC(N)=O)C(=O)N[C@H](C(=O)N[C@@H](Cc1ccccc1)C(=O)NNC(=O)N[C@@H](CC(C)C)C(=O)N[C@@H](CCCNC(=N)NC)C(=O)N[C@@H](Cc1c[nH]c2ccccc12)C(N)=O)[C@@H](C)O [Compound No. 710, Decanoyl-Asn-Thr-Phe-AzaGly-Leu-Arg(Me)-Trp-NH2] (Decanoyl-NTF[azaGly]L[Arg(Me)]W-NH2) | 7.2
CNC(=N)NCCC[C@H](NC(=O)[C@H](CC(C)C)NC(=O)NNC(=O)[C@H](Cc1ccccc1)NC(=O)[C@@H](NC(=O)[C@H](CC(N)=O)NC(=O)[C@H](CCCN)NC(=O)[C@@H](Cc1ccc(O)cc1)NC(C)=O)[C@@H](C)O)C(=O)N[C@@H](Cc1c[nH]c2ccccc12)C(N)=O [Compound No. 771, Ac-D-Tyr-Orn-Asn-Thr-Phe-AzaGly-Leu-Arg(Me)-Trp-NH2] (Ac-[dY][Orn]NTF[azaGly]L[Arg(Me)]W-NH2) | 1.9
CNC(=N)NCCC[C@H](NC(=O)[C@H](CC(C)C)NC(=O)NNC(=O)[C@H](Cc1ccccc1F)NC(=O)[C@@H](NC(=O)[C@H](CC(N)=O)NC(=O)CNC(=O)[C@@H](Cc1ccc(O)cc1)NC(C)=O)[C@@H](C)O)C(=O)N[C@@H](Cc1c[nH]c2ccccc12)C(N)=O [Compound No. 783, Ac-D-Tyr-Gly-Asn-Thr-Phe(2F)-AzaGly-Leu-Arg(Me)-Trp-NH2] (Ac-[dY]GNT[Phe(2-F)][azaGly]L[Arg(Me)]W-NH2) | 8.8
CNC(=N)NCCC[C@H](NC(=O)[C@H](CC(C)C)NC(=O)NNC(=O)[C@H](Cc1ccccc1)NC(=O)[C@@H](NC(=O)[C@@H](CC(N)=O)NC(=O)[C@@H]1C[C@@H](O)CN1C(=O)[C@@H](Cc1ccc(O)cc1)NC(C)=O)[C@@H](C)O)C(=O)N[C@@H](Cc1c[nH]c2ccccc12)C(N)=O [Compound No. 844, Ac-D-Tyr-Hyp-D-Asn-Thr-Phe-AzaGly-Leu-Arg(Me)-Trp-NH2] (Ac-[dY][Hyp][dN]TF[azaGly]L[Arg(Me)]W-NH2) | 0.9
